Laboratory results taken from patent publication US20250302846A1, “ANTIBIOTIC COMPOSITION AND METHODS OF USE THEREOF” (THE REGENTS OF THE UNIVERSITY OF COLORADO A BODY CORPORATE, priority 2022, published 2025).
In brackets after ≈: the same amount, converted by molar mass.

How the values were obtained:
[1] = Solubility limit in assay medium; type: physicochemical; details: bacterial growth broth (LB or MHB), 37 °C, plasma or biological fluid, kinetic from dmso stock, final DMSO at or below 2%
S. Typhimurium = test: Propidium iodide membrane barrier assay; type: cell-based
Experimental: FIG. 3A-F. D66 rapidly perturbs the bacterial cytoplasmic membrane with minor disruption of barrier function. Mid-log phase S. Typhimurium cells grown in LB with 0.5 μg/mL PMB were used for all experiments. A) Cell membrane potential was monitored with the fluorescent dye DiSC3 (5). Cells were treated at time 0 with DMSO, JD1 [70 μM], or D66. Data were normalized to DMSO at time 0 and corrected for the quenching effect of D66 (FIG. 6A, B) B) Cell membrane permeability was monitored by PI fluorescence. Cells were treated at time 0 with DMSO, SDS [0.005%] or D66. Samples were processed at the time points shown. A one-way ANOVA with a Dunnet's multiple comparison test, * P<0.005. C-F) Growth curves and kill-curves of cells treated at time 0 with either DMSO or D66. Culture aliquots were monitored for OD600 (C, E) or plated for enumeration of CFU (D, F). Data are presented as fold change. Mean and SEM of three biological replicates with technical triplicates are shown in all panels.
Propidium iodide membrane barrier assays: Compound, DMSO, or SDS was added to mid-log phase cells to the desired concentration, and cultures were sampled at 0, 10, 15, 20, 30 and 45 minutes. Five minutes before harvesting, PI [10 μg/mL] (Life Technologies) was added. Cells were pelleted, washed twice, resuspended in PBS, and monitored (ex535/em617 nm) using a BioTek Synergy H1 plate reader.

[2] = test system: S. Typhimurium (SL1344 with sifB::gfp) in RAW 264.7 macrophages; test: SAFIRE assay: bacterial accumulation (GFP) in macrophages; type: cell-based; details: Salmonella enterica, RAW264.7, 16 h, read-out: IC50 in SAFIRE
Experimental: FIG. 1A-D. D66 is a small molecule that prevents S. Typhimurium replication and/or survival in macrophages. A). Structure of D66. B) RAW264.7 macrophage-like cells were infected with S. Typhimurium harboring a chromosomal sifB: : gfp reporter, treated with DMSO or D66 at two hours after infection, and monitored for bacterial accumulation (GFP+Macrophage Area) over 16 hours using the SAFIRE (Screen for Anti-infectives using Fluorescence microscopy of Intracellular Enterobacteriaceae) assay. The IC50 value is indicated. Mean and SD of biological duplicates with technical duplicates across 9 dilutions of D66. C, D) CFU assays were performed with RAW264.7 or HeLa cells infected with S. Typhimurium SL1344 or 14028 for two hours and treated for 16 hours with DMSO or 1.5-fold dilutions of D66, prior to lysis and plating for CFU. Symbols on the Y-axes are the CFU value from DMSO-treated samples. […]
SAFIRE and CFU assays: SAFIRE assays were performed with RAW 264.7 (TIB-71) macrophages seeded at […] in 100 μL of complete DMEM in 96-well tissue culture plates (Greiner, 655180) and incubated at 37° C. with 5% CO2. […] After 16 hours of treatment, samples were imaged on a spinning disk confocal microscope, and a MATLAB algorithm calculated bacterial accumulation (GFP fluorescence) within macrophages, as defined by DAPI (DNA) and MitoTracker Red, a vital dye for mitochondrial voltage. […]

O=C(Nc1cc(Cl)cc(Cl)c1)N1CCCN(Cc2ccccc2)CC1 [D66]
solubility [1]: ~150 µM (≈ 56.7 µg/mL)
time elapsed prior to an increase in PI fluorescence (S. Typhimurium; LB with PMB [0.5 μg/mL], D66 at 1x MIC95): 45 min
time of treatment after which PI signal increased (S. Typhimurium; LB with PMB [0.5 μg/mL], D66 at 2x MIC95, SDS [0.005%] positive control): 10 min
PI signal increase (S. Typhimurium; at 1x MIC, within 30 minutes): two-fold
IC50 [2]: 6 ± 0.5 µM
